Assay results: US10716773B2, “Compositions comprising 15-HEPE and methods of treating or preventing cancer and neurologic disease” (Afimmune Limited, priority 2015, dated 2020)
Values joined by “and” are separate entries in the source; they are usually repeats but may differ in a detail not shown here. Equal values may be shown once.

Tests used:
caspase-3/7 = experiment: Staurosporine-induced caspase-3/7 activity in NHDF, measured in cell lysates with fluorogenic substrate Ac-DEVD-AMC; assay type: cell-based, human; conditions: staurosporine-stimulated NHDF; for Caspase-3/7 activity (Fluorescence 380 nm/440 nm) / Caspase-3/7 activity - Background (Fluorescence 380 nm/440 nm) / Caspese-3/7 activity/proteins: single replicates
Experimental: The potential inhibitory effect of compounds 15(S)-HEPE EE and EPA EE was evaluated on staurosporine-induced caspase activation in normal human dermal fibroblasts (NHDF). […] Normal human dermal fibroblasts (NHDF) were used at the 8th passage. […] Fibroblasts were seeded in 24-well plates and cultured for 24 hours in culture medium. The medium was then removed and replaced by assay medium containing or not (control) the test compounds and cells were pre-incubated for 24 hours. […] The cells were then incubated for 24 hours. Non-stimulated controls (without inducer) were performed in parallel. All experimental conditions were performed in n=3. […] Enzyme activity assay and protein quantification assay were performed in separated plates due to the fact that DTT used in the lysis buffer for caspase activity interferes with protein quantification. […] Lysis buffer: HEPES buffer (pH 7.4) containing EDTA, Triton X-100, NP-40 and DTT Assay Buffer: HEPES buffer (pH 7.4) containing NaCl, EDTA, NP-40, glycerol and DTT Substrate: Ac-DEVD-AMC, tested at 10 μM (stock solution at 1.5 mM in DMSO) Reference inhibitor: […] Ac-DEVD-AMC is a synthetic tetrapeptide fluorogenic substrate for caspase-3 and caspase-7 and contains the amino acid sequence of the PARP cleavage site at […]. […] Enzymes cleave the tetrapeptide between D and AMC resulting in the release of fluorogenic AMC, which can be quantified with a spectrofluorometer. […] In parallel, an additional control (assay buffer containing the substrate) was also performed to determine the background signal. At the end of incubation, the fluorescence intensity emitted by the reaction product (cleaved Ac-DEVD-AMC) was measured at wavelengths λex 380 nm and λem 440 nm using a spectrofluorimeter (SPECTRAmax® Gemini, Molecular Devices).

[1] = tested on: normal human dermal fibroblasts (NHDF); experiment: MTT reduction assay and observation of the cell layers: viability of fibroblasts after 48 hours of incubation; assay type: cell-based; conditions: for Visability (%): single replicates; as to Morpholigical observations: key: +: normal population; +/−: growth reduction; −: toxicity; 0: cell mortality; grains of compound; opacity of the compound; *: morphological modification; agglutinated cells
Experimental: Normal human dermal fibroblasts (NHDF) were used at the 8th passage. Cells were cultured at 37° C., 5% CO2 in DMEM supplemented with L-glutamine 2 mM, 50 U/ml Penicillin, 50 μg/ml Streptomycin and 10% Foetal calf serum (FCS).

In the case of CC/C=C\C/C=C\C/C=C\C/C=C\C/C=C\CCCC(=O)OCC [EPA EE], the “% inhibition” value (caspase-3/7; 0.001 μg/ml) is reported as −31%, the “% stimulated control” value (caspase-3/7; 0.001 μg/ml) is reported as 128% and the “Normalized data: Mean (caspase-3/7 activity/proteins)” value (caspase-3/7; 0.001 μg/ml) is reported as 113173 AU/mg. The “Caspase-3/7 activity (Fluorescence 380 nm/440 nm)” value (caspase-3/7; 0.001 μg/ml) was 1457 AU and 1667 AU and 1637 AU, the “Caspase-3/7 activity - Background (Fluorescence 380 nm/440 nm)” value (“Caspase-3/7 activity - Background” below) (caspase-3/7; 0.001 μg/ml) was 1140 AU and 1350 AU and 1320 AU and the Caspese-3/7 activity/proteins (caspase-3/7; 0.001 μg/ml) was 100237 AU/mg and 128199 AU/mg and 111084 AU/mg. For the same compound, the “% inhibition” value (caspase-3/7; 0.01 μg/ml) was −1%, the “% stimulated control” value (caspase-3/7; 0.01 μg/ml) was 101% and the “Normalized data: Mean (caspase-3/7 activity/proteins)” value (caspase-3/7; 0.01 μg/ml) was 89425 AU/mg. For the same compound, the “Caspase-3/7 activity (Fluorescence 380 nm/440 nm)” value (caspase-3/7; 0.01 μg/ml) was 1359 AU and 1476 AU and 1472 AU, the “Caspase-3/7 activity - Background” value (caspase-3/7; 0.01 μg/ml) was 1042 AU and 1159 AU and 1155 AU and the Caspese-3/7 activity/proteins (caspase-3/7; 0.01 μg/ml) was 89522 AU/mg and 89043 AU/mg and 89708 AU/mg. The “% inhibition” value (caspase-3/7; 0.1 μg/ml) was 5%, the “% stimulated control” value (caspase-3/7; 0.1 μg/ml) was 95% and the “Normalized data: Mean (caspase-3/7 activity/proteins)” value (caspase-3/7; 0.1 μg/ml) was 84209 AU/mg. The “Caspase-3/7 activity (Fluorescence 380 nm/440 nm)” value (caspase-3/7; 0.1 μg/ml) was 1474 AU and 1382 AU and 1558 AU, the “Caspase-3/7 activity - Background” value (caspase-3/7; 0.1 μg/ml) was 1157 AU and 1065 AU and 1241 AU and the Caspese-3/7 activity/proteins (caspase-3/7; 0.1 μg/ml) was 83312 AU/mg and 79809 AU/mg and 89506 AU/mg. For the same compound, the “% inhibition” value (caspase-3/7; 1 μg/ml) was −3%, the “% stimulated control” value (caspase-3/7; 1 μg/ml) was 103% and the “Normalized data: Mean (caspase-3/7 activity/proteins)” value (caspase-3/7; 1 μg/ml) was 90527 AU/mg. The “Caspase-3/7 activity (Fluorescence 380 nm/440 nm)” value (caspase-3/7; 1 μg/ml) was 1423 AU and 1604 AU and 1486 AU, the “Caspase-3/7 activity - Background” value (caspase-3/7; 1 μg/ml) was 1106 AU and 1287 AU and 1169 AU and the Caspese-3/7 activity/proteins (caspase-3/7; 1 μg/ml) was 87358 AU/mg and 96851 AU/mg and 87370 AU/mg. The “% inhibition” value (caspase-3/7; 10 μg/ml) was 2%, the “% stimulated control” value (caspase-3/7; 10 μg/ml) was 98% and the “Normalized data: Mean (caspase-3/7 activity/proteins)” value (caspase-3/7; 10 μg/ml) was 86723 AU/mg. The “Caspase-3/7 activity (Fluorescence 380 nm/440 nm)” value (caspase-3/7; 10 μg/ml) was 1335 AU and 1264 AU and 1458 AU, the “Caspase-3/7 activity - Background” value (caspase-3/7; 10 μg/ml) was 1018 AU and 947 AU and 1141 AU and the Caspese-3/7 activity/proteins (caspase-3/7; 10 μg/ml) was 78044 AU/mg and 76787 AU/mg and 105337 AU/mg. The “% inhibition” value (caspase-3/7; 100 μg/ml) was 61%, the “% stimulated control” value (caspase-3/7; 100 μg/ml) was 45% and the “Normalized data: Mean (caspase-3/7 activity/proteins)” value (caspase-3/7; 100 μg/ml) was 39319 AU/mg. The “effect on caspase-3/7 activity (in words)” value (caspase-3/7; 100 μg/ml) was “clear inhibitory effect”, the “Caspase-3/7 activity (Fluorescence 380 nm/440 nm)” value (caspase-3/7; 100 μg/ml) was 807 AU and 843 AU and 1068 AU and the “Caspase-3/7 activity - Background” value (caspase-3/7; 100 μg/ml) was 490 AU and 526 AU and 751 AU. For the same compound, the Caspese-3/7 activity/proteins (caspase-3/7; 100 μg/ml) was 29572 AU/mg and 37623 AU/mg and 50763 AU/mg, the “effect on caspase-3/7 activity (in words)” value (caspase-3/7; tested from 0.001 to 10 μg/ml) was “no effect” and the Morpholigical observations ([1]; 0.001 μg/ml) was “+”. The “Visability (%) Mean” value ([1]; 0.001 μg/ml) was 100%, the “Visability (%)” value ([1]; 0.001 μg/ml) was 99% and 97% and 104% and the Morpholigical observations ([1]; 0.01 μg/ml) was “+”. The “Visability (%) Mean” value ([1]; 0.01 μg/ml) was 98%, the “Visability (%)” value ([1]; 0.01 μg/ml) was 101% and 94% and 98% and the Morpholigical observations ([1]; 0.1 μg/ml) was “+”. For the same compound, the “Visability (%) Mean” value ([1]; 0.1 μg/ml) was 99%, the “Visability (%)” value ([1]; 0.1 μg/ml) was 99% (2×) and 98% and the Morpholigical observations ([1]; 1 μg/ml) was “+”. The “Visability (%) Mean” value ([1]; 1 μg/ml) was 97%, the “Visability (%)” value ([1]; 1 μg/ml) was 95% (2×) and 100% and the Morpholigical observations ([1]; 10 μg/ml) was “+”. The “Visability (%) Mean” value ([1]; 10 μg/ml) was 97%, the “Visability (%)” value ([1]; 10 μg/ml) was 94% and 98% and 100% and the Morpholigical observations ([1]; 30 μg/ml) was “+”. For the same compound, the “Visability (%) Mean” value ([1]; 30 μg/ml) was 96%, the “Visability (%)” value ([1]; 30 μg/ml) was 99% and 95% and 93% and the Morpholigical observations ([1]; 100 μg/ml) was “+”. The “Visability (%) Mean” value ([1]; 100 μg/ml) was 100%, the “Visability (%)” value ([1]; 100 μg/ml) was 102% and 98% and 100% and the Morpholigical observations ([1]; 300 μg/ml) was “+”. The “Visability (%) Mean” value ([1]; 300 μg/ml) was 106% and the “Visability (%)” value ([1]; 300 μg/ml) was 105% and 107% and 106%.
